Experimental findings from patent US20100075854A1, “HERBICIDE COMBINATION COMPRISING DIMETHOSXYTRIAZINYL-SUBSTITUTED DIFLUOROMETHANESULFONYLANILIDES” (Bayer CropScience AG, priority 2008, published 2010) are described below.

What all share (test): Post-emergence action, greenhouse pot test, visual scoring
Common to all, as to assay type: in vivo

Test [1] deals with Lolium multiflorum (LOLMU). The settings on record: read-out: % activity found; for inhibition at 30 g/ha: 30 g of ai/ha; for inhibition at 10 g/ha: 10 g of ai/ha. On the procedure:
(§1) Seeds or rhizome pieces of mono- and dicotyledonous harmful and useful plants were placed in peat pots (diameter 4 cm) filled with sandy loam and then covered with soil. The pots were kept in a greenhouse under optimum conditions. In addition, harmful plants encountered in paddy rice cultivation were cultivated in pots with a water level 2 cm above the soil surface.
(§2) About three weeks after the start of the cultivation, the test plants were treated at the 2- to 3-leaf stage. The herbicides, formulated as powder or liquid concentrates, were, either alone or in the combinations according to the invention, sprayed in various dosages on to the green parts of the plants using an application rate of 600 l of water/ha (converted). For further cultivation of the plants, the pots were then again kept under optimum conditions in a greenhouse.
(§3) The visual scoring of the herbicidal effects was carried out in intervals up to 21 days after the treatment. Scoring was carried out in percent in comparison to the untreated control plants. 0%=no herbicidal activity, 100%=complete herbicidal activity=complete kill.
(§4) The percentages from the treatments with the herbicides alone (=individual application) and with the combinations according to the invention (=mixtures) were employed to calculate interactions using the method of Colby. When the observed efficacies of the mixtures exceed the formal sum of the values of the tests with individual applications, they also exceed the expected value according to Colby, which is calculated using the formula below (cf. S. R. Colby; in Weeds 15 (1967) pp. 20 to 22):
(§5) • A, B=activity of components A and B in percent at a dosage of a and b g of ai/ha (=gramm of active substance per hectare), respectively. • E=expected value in % at a dosage of a+b g of ai/ha.

The test system of test [2] is Matricaria inodora (MATIN). As to conditions: Tripleurospermum inodorum, read-out: % activity found; for inhibition at 30 g/ha / inhibition at 10 g/ha: MATIN; for inhibition at 30 g/ha: 30 g of ai/ha; for inhibition at 10 g/ha: 10 g of ai/ha. On the procedure:
as §1, §2, §3, §4, §5

Another test relates to Oryza sativa (ORYSA). The settings on record: read-out: % activity found. As for the experimental part:
as §1, §2, §3, §4, §5

Test [3] concerns Triticum aestivum (TRZAS). The settings on record: read-out: % activity found; for inhibition at 30 g/ha: 30 g of ai/ha. On the procedure: as §1, §2, §3, §4, §5
For test [4], the system named is Alopecurus myosuroides (ALOMY). The settings on record: 504 h, read-out: % activity found. As for the experimental part: as §1, §2, §3, §4, §5
For another test, the system named is Avena fatua (AVEFA). The settings on record: read-out: % activity found. On the procedure:
as §1, §2, §3, §4, §5

The test system of test [5] is Cyperus esculentus (CYPES). The settings on record: for (7) % activity found: CYPES, 21 DAT. As for the experimental part:
as §1, §2, §3, §4, §5

Another test relates to Viola tricolor (VIOTR). The settings on record: read-out: % activity found; for inhibition at 10 g/ha / inhibition at 30 g/ha: VIOTR; for inhibition at 10 g/ha: 10 g of ai/ha; for inhibition at 30 g/ha: 30 g of ai/ha. As for the experimental part:
as §1, §2, §3, §4, §5

The next test has as its system Zea mays (ZEAMX). As to conditions: read-out: % activity found; for inhibition at 10 g/ha: 10 g of ai/ha. As for the experimental part:
as §1, §2, §3, §4, §5

Test [6] concerns Abuthilon theophrasti (ABUTH). As to conditions: Abutilon theophrasti, read-out: % activity found; for inhibition at 10 g/ha / inhibition at 30 g/ha: ABUTH; for inhibition at 10 g/ha: 10 g of ai/ha; for inhibition at 30 g/ha: 30 g of ai/ha. As for the experimental part: as §1, §2, §3, §4, §5
Test [7] deals with Amaranthus retroflexus (AMARE). As to conditions: read-out: % activity found; for inhibition at 10 g/ha / inhibition at 30 g/ha: AMARE; for inhibition at 10 g/ha: 10 g of ai/ha; for inhibition at 30 g/ha: 30 g of ai/ha. As for the experimental part: as §1, §2, §3, §4, §5
Test [8] concerns Fallopia (ex Polygonum) convolvulus (POLCO). The settings on record: read-out: % activity found. On the procedure:
as §1, §2, §3, §4, §5

Test [9] deals with Pharbitis purpurea (PHBPU). As to conditions: Ipomoea purpurea, read-out: % activity found; for inhibition at 10 g/ha / inhibition at 30 g/ha: PHBPU; for inhibition at 10 g/ha: 10 g of ai/ha; for inhibition at 30 g/ha: 30 g of ai/ha. On the procedure:
as §1, §2, §3, §4, §5

For the next test, the system named is Veronica persica (VERPE). As to conditions: read-out: % activity found; for inhibition at 10 g/ha: 10 g of ai/ha. As for the experimental part:
as §1, §2, §3, §4, §5

The mark [10] stands for this setting: Cyperus esculentus, 504 h, read-out: % activity found.

Like-named read-outs stand apart in the source and are kept apart here.

For the molecule `CCOC(=O)C(C)OC(=O)c1cc(Oc2ccc(C(F)(F)F)cc2Cl)ccc1[N+](=O)[O-]` (racemic) [B1-5, (±)-2-ethoxy-1-methyl-2-oxoethyl 5-[2-chloro-4-(trifluoromethyl)phenoxy]-2-nitrobenzoate], the inhibition at 30 g/ha turned out to be 20% in [1] (504 h, 21 DAT); 80% in test [2] (504 h, 21 DAT); 40% in the test on Oryza sativa (ORYSA) (240 h, ORYSA, 10 DAT, 30 g of ai/ha); 20% in [3] (504 h, TRZAS, 21 DAT).

In the case of `O=C(O)COc1ccc(Cl)cc1Cl` [B5-2, (2,4-dichlorophenoxy)acetic acid], the inhibition at 70 g/ha (in [4]; with Avena fatua (AVEFA) (504 h); in test [5] (setting [10]); in the test with Zea mays (ZEAMX) (240 h); in the test with Zea mays (ZEAMX) (504 h)) was 0% each time. Further, the inhibition at 210 g/ha in test [4] was 0%; in the test on Avena fatua (AVEFA) (504 h) it was 0%; in test [3] (240 h), 0%; with Viola tricolor (VIOTR) (504 h), 60%; in the test on Zea mays (ZEAMX) (240 h), 40%.

As to `C[C@@H](Oc1ccc(Oc2ccc(C#N)cc2F)cc1)C(=O)O` [B7-2, (2R)-2-[4-(4-cyano-2-fluorophenoxy)phenoxy]propanoic acid], the inhibition at 25 g/ha (in test [6] (504 h); in [4]; in [7] (240 h); in test [7] (504 h); in the test on Avena fatua (AVEFA) (504 h); in [5] (setting [10])) was 0% in each case. Also, the inhibition at 25 g/ha is 0% in [8] (240 h); 0% in test [8] (504 h); 0% in [2] (504 h); 10% with Oryza sativa (ORYSA) (504 h); 0% in [9] (240 h); 0% in [9] (504 h). Further, the inhibition at 25 g/ha in the test on Veronica persica (VERPE) (504 h) came to 0%; in the test with Viola tricolor (VIOTR) (504 h) it was 0%; in the test on Zea mays (ZEAMX) (240 h), 70%; in the test on Zea mays (ZEAMX) (504 h), 70%. The inhibition at 75 g/ha was determined as 0% in test [6] (504 h); 20% in test [4]; 0% in test [7] (504 h); 0% in test [5] (setting [10]); 0% in test [8] (240 h); 0% in [8] (504 h). The inhibition at 75 g/ha in test [2] (504 h) stood at 0%; in the test with Oryza sativa (ORYSA) (504 h) it was 20%; in [9] (240 h), 20%; in test [9] (504 h), 0%; with Veronica persica (VERPE) (240 h) it was 0%; in the test on Veronica persica (VERPE) (504 h) it was 0%. The inhibition at 75 g/ha in the test with Viola tricolor (VIOTR) (240 h) and with Viola tricolor (VIOTR) (504 h) was 0% in each case.

As to `C[C@@H](Oc1ccc(Oc2nc3ccc(Cl)cc3o2)cc1)C(=O)O` [B7-4, (R)-2-[4-(6-chlorobenzoxazol-2-yloxy)phenoxy]propionic acid], the inhibition at 10 g/ha is 0% in test [6] (240 h, 10 DAT); 0% in test [6] (504 h, 21 DAT); 30% in test [4] (ALOMY, 21 DAT, 10 g of ai/ha); 0% in [7] (240 h, 10 DAT); 0% in test [7] (504 h, 21 DAT); 0% with Avena fatua (AVEFA) (240 h, AVEFA, 10 DAT, 10 g of ai/ha). The inhibition at 10 g/ha in [8] (504 h, POLCO, 21 DAT, 10 g of ai/ha) came to 0%; in test [1] (240 h, 10 DAT), 20%; in [1] (504 h, 21 DAT) it was 0%; in test [2] (240 h, 10 DAT), 0%; in [2] (504 h, 21 DAT), 0%; in test [9] (240 h, 10 DAT), 0%. Besides, the inhibition at 10 g/ha came to 0% in [9] (504 h, 21 DAT); 0% in test [3] (240 h, TRZAS, 10 DAT, 10 g of ai/ha); 0% in the test with Veronica persica (VERPE) (240 h, VERPE, 10 DAT); 0% with Veronica persica (VERPE) (504 h, VERPE, 21 DAT); 0% in the test with Viola tricolor (VIOTR) (240 h, 10 DAT); 0% with Viola tricolor (VIOTR) (504 h, 21 DAT). Moreover, the inhibition at 10 g/ha came out at 30% in the test on Zea mays (ZEAMX) (240 h, ZEAMX, 10 DAT) and 20% in the test on Zea mays (ZEAMX) (504 h, ZEAMX, 21 DAT). The inhibition at 30 g/ha in [6] (240 h, 10 DAT) stood at 0%; in test [6] (504 h, 21 DAT) it was 0%; in test [4] (ALOMY, 21 DAT, 30 g of ai/ha) it was 30%; in [7] (240 h, 10 DAT) it was 0%; in test [7] (504 h, 21 DAT), 0%; in the test on Avena fatua (AVEFA) (504 h, AVEFA, 21 DAT, 30 g of ai/ha), 0%. For the same molecule, the inhibition at 30 g/ha in [8] (504 h, POLCO, 21 DAT, 30 g of ai/ha) turned out to be 0%; in [1] (504 h, 21 DAT), 0%; in [2] (240 h, 10 DAT), 0%; in [2] (504 h, 21 DAT) it was 0%; in test [9] (240 h, 10 DAT), 0%; in test [9] (504 h, 21 DAT) it was 0%. Moreover, the inhibition at 30 g/ha was found to be 0% in test [3] (240 h, TRZAS, 10 DAT); 0% in the test with Veronica persica (VERPE) (504 h, VERPE, 21 DAT, 30 g of ai/ha); 0% with Viola tricolor (VIOTR) (240 h, 10 DAT); 0% in the test on Viola tricolor (VIOTR) (504 h, 21 DAT); 70% in the test on Zea mays (ZEAMX) (240 h, ZEAMX, 10 DAT, 30 g of ai/ha). The “(7) % activity found” value in test [5] ((6) dose of B7-4 10, alone) is 0%; in test [5] ((6) dose of B7-4 30, alone), 0%.
